Assay [1] has as its system ACAT. Description: Assay of ACAT inhibitory activity in a specimen prepared from rabbit liver. The format is biochemical, New Zealand white rabbit. As to conditions: enzyme specimen from liver of cholesterol-fed rabbit, [1-14C]oleoyl-CoA and endogenous cholesterol, 0.1 µM. How it is done:
1. Assay of ACAT inhibitory activity in a specimen prepared from rabbit liver
An enzyme specimen ACAT was prepared according to the method disclosed in the literature: J. Lipid. Research, 30, 681-690, 1989, from the liver of New Zealand white rabbit, which had been fed with 1 % cholesterol feed for one month. The ACAT activity was determined according to the method disclosed in the literature: J. Lipid Research, 24, 1127-1134, 1983, i.e., using radioactive [1-14C]oleoyl-CoA and endogenous cholesterol contained in the liver microsome, and calculated from the radioactivity of the labeled cholesterol oleate.

The target in assay [2] is T1, ACAT (Rattus norvegicus, UniProt O70536).
T1 construct: The rat peritoneal-derived macrophage was prepared; endogenous in cells; host or cells: rat peritoneal macrophages (primary)
T1 sequence (O70536 1-545): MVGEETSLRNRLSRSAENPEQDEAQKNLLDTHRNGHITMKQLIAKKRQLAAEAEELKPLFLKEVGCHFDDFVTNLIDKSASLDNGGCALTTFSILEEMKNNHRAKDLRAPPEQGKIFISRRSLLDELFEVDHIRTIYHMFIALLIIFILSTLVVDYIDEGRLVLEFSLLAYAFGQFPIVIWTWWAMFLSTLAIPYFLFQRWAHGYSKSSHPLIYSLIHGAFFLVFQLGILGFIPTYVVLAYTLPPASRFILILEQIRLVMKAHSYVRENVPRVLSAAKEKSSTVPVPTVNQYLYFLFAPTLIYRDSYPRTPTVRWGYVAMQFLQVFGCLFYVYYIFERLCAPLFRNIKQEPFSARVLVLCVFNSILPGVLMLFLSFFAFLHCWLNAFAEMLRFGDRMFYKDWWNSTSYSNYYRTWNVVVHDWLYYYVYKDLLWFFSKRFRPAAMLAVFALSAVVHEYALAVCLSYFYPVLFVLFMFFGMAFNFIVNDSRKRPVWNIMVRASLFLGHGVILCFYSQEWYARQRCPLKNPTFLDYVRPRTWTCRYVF
Description: Assay of ACAT inhibitory activity in the macrophage derived from rat peritoneal. The format is cell-based. As to conditions: 10^-7 M, radioactive oleic acid and exogenous cholesterol in liposome, read-out: ACAT inhibitory rate (%) 10^-7 M. The protocol:
2. Assay of ACAT inhibitory activity in the macrophage derived from rat peritoneal
The rat peritoneal-derived macrophage was prepared according to the method disclosed in the literature: Biochimica et Biophysica Acta, 1126, 73-80, 1992. The ACAT activity was determined by a modified method of the method disclosed in the above literature: Biochimica et Biophysica Acta, 1126, 73-80, 1992, i.e., using radioactive [9, 10-H]oleic acid and exogenous cholesterol contained in the liposome which was reconstituted according to the method disclosed in the literature: Biochimica et Biophysica Acta, 1213, 127-134, 1994, and calculated from the radioactivity of the labeled cholesterolyl oleate.

Turning to `CCCCn1c(=O)c(NC(=O)Nc2c(C(C)C)cccc2C(C)C)c(-c2cccc(C#CCN3CCCC3)c2)c2cccnc21` [Example 90, N-[1-butyl-4-[3-{3-(1-pyrrolidinyl)-1-propynyl)phenyl}-1,2-dihydro-2-oxo-1,8-naphthyridin-3-yl)-N'-(2,6-diisopropylphenyl)urea], the “ACAT inhibitory rate (%) 10^-7 M” value in the assay on ACAT [1] stood at 39%. In addition, on ACAT [2], the inhibition at 0.1 µM amounted to 96%.

The values are drawn from EP0947515A1, “NOVEL NAPHTHYRIDINE DERIVATIVES” (SUMITOMO PHARMACEUTICALS COMPANY, LIMITED, priority 1996, dated 1998).
